From EPA's ToxRefDB 2

Key:
[1] = test system: rat; conditions: Sub-acute repeat dose toxicity, Oral, Gavage/Intubation, dose end: 14 day, group: systemic
[2] = test system: dog; conditions: Sub-acute repeat dose toxicity; beagle; Oral; Gavage/Intubation; dose end: 14 day; group: systemic; systemic / in life observation / clinical signs / abnormal feces
[3] = test system: rat; conditions: Sub-acute repeat dose toxicity, sprague dawley, Oral, Gavage/Intubation, dose end: 14 day, group: systemic
[4] = test system: mouse; conditions: Carcinogenicity; b6c3f1; Dermal; Topical; dose end: 105 week; group: systemic; systemic / pathology microscopic / skin / hyperplasia + systemic / pathology microscopic / skin / inflammation
[5] = test system: mouse; conditions: Subchronic oral toxicity in rodents, b6c3f1, Dermal, Topical, dose end: 14 week, group: systemic
[6] = test system: rat; conditions: Prenatal developmental toxicity study, sprague dawley, Oral, Gavage/Intubation, dose end: 15 GD
[7] = test system: rat; conditions: Sub-acute dermal toxicity, wistar, Topical, dose end: 21 day, group: systemic, systemic / in life observation / clinical signs / erythema + systemic / in life observation / clinical signs / skin ulceration + systemic / …
[8] = test system: mouse; conditions: Sub-acute dermal toxicity, b6c3f1, Topical, dose end: 2 week, group: systemic, systemic / pathology gross / skin / [other] + systemic / pathology gross / skin / thickened + systemic / pathology gross / skin / ulcer + …
[9] = test system: rat; conditions: Sub-acute dermal toxicity, fischer, Topical, dose end: 2 week, group: systemic, systemic / pathology microscopic / skin / hyperkeratosis + systemic / pathology microscopic / skin / hyperplasia + systemic / pathology …
[10] = test system: rat; conditions: Carcinogenicity, fischer, Dermal, Topical, dose end: 105 week, group: systemic
[11] = test system: dog; conditions: Other (NonGuideline or Guideline Not Listed); beagle; Oral; Feed; dose end: 13 week; group: cannot be grouped; systemic / clinical chemistry / thyroxine (t4) / thyroxine (t4), total + systemic / clinical chemistry / triiodothyronine (t3) / …
[12] = test system: rat; conditions: Other (NonGuideline or Guideline Not Listed), Oral, Feed, dose end: 111 PND, group: cannot be grouped
[13] = test system: dog; conditions: Subchronic oral toxicity in nonrodent, beagle, Feed, dose end: 90 day, group: systemic
[14] = test system: rat; conditions: Subchronic dermal toxicity, fischer, Topical, dose end: 14 week, group: systemic
[15] = test system: dog; conditions: Subchronic oral toxicity in nonrodent, beagle, Feed, dose end: 90 day, group: systemic, systemic / organ weight / ovary / relative to body weight + systemic / organ weight / thyroid gland / relative to body weight
[16] = test system: mouse; conditions: Subchronic oral toxicity in rodents, b6c3f1, Gavage/Intubation, dose end: 13 week, group: systemic, systemic / in life observation / body weight / body weight
[17] = test system: rat; conditions: Carcinogenicity; fischer; Oral; Gavage/Intubation; dose end: 103 week; group: systemic; systemic / in life observation / body weight / body weight
[18] = test system: mouse; conditions: Carcinogenicity, b6c3f1, Oral, Gavage/Intubation, dose end: 103 week, group: systemic
[19] = test system: rat; conditions: Subchronic oral toxicity in rodents, fischer, Gavage/Intubation, dose end: 13 week, group: systemic
[20] = systemic / in life observation / clinical signs / salivation
[21] = systemic / in life observation / clinical signs / urine staining - perineum + systemic / in life observation / clinical signs / salivation
[22] = systemic / clinical chemistry / glucose / glucose + systemic / clinical chemistry / urea nitrogen / urea nitrogen + systemic / clinical …
[23] = systemic / organ weight / lung / absolute + systemic / organ weight / lung / relative to body weight
[24] = systemic / organ weight / lung / absolute + systemic / organ weight / lung / relative to body weight + systemic / organ weight / liver / …
[25] = group: developmental, developmental / developmental malformation / [other] / [other]
[26] = group: maternal, systemic / in life observation / body weight / body weight gain + reproductive / reproductive performance / resorptions / resorptions
[27] = systemic / pathology gross / skin / [other] + systemic / pathology microscopic / skin / hyperkeratosis + systemic / pathology microscopic / …
[28] = systemic / pathology microscopic / skin / hyperkeratosis + systemic / pathology microscopic / skin / inflammation + systemic / pathology …
[29] = systemic / in life observation / body weight / body weight gain + systemic / in life observation / food consumption / food consumption
[30] = systemic / in life observation / body weight / body weight gain + systemic / in life observation / food consumption / food consumption + …
[31] = systemic / pathology microscopic / kidney / pigmentation + systemic / pathology microscopic / spleen / hematopoietic cell proliferation
[32] = systemic / pathology microscopic / skin / hyperkeratosis
[33] = systemic / pathology microscopic / skin / hyperkeratosis + systemic / pathology microscopic / skin / hyperplasia + systemic / pathology …
[34] = systemic / pathology microscopic / liver / hypertrophy + systemic / pathology microscopic / liver / necrosis + systemic / pathology …
[35] = systemic / in life observation / body weight / body weight + systemic / in life observation / mortality / mortality + systemic / pathology …

O=C(O)CCN(C1(C(=O)NO)CCCC1)S(=O)(=O)c1ccc(Oc2ccc(F)cc2)cc1
LEL [1, 20]: 300 mg/kg/day
NEL [1, 20]: < 300 mg/kg/day
LOAEL [1, 21]: > 500 mg/kg/day
NOAEL [1, 21]: ≥ 500 mg/kg/day
LEL [2]: 250 mg/kg/day
LOAEL [2]: > 250 mg/kg/day
NEL [2]: 50 mg/kg/day
NOAEL [2]: ≥ 250 mg/kg/day
LEL ([3]; systemic / clinical chemistry / glucose / glucose + systemic / clinical chemistry / urea nitrogen / urea nitrogen): 150 mg/kg/day
LOAEL [3, 22]: > 500 mg/kg/day
NOAEL [3, 22]: ≥ 500 mg/kg/day

N#CCCC(Br)(C#N)CBr (stereo not drawn) [1,2-Dibromo-2,4-dicyanobutane]
LEL [4]: 0.6 mg/kg/day
LOAEL [4]: 0.6 mg/kg/day
NEL [4]: < 0.6 mg/kg/day
NOAEL [4]: < 0.6 mg/kg/day
LEL [5, 23]: 0.2 mg/kg/day
NEL [5, 23]: < 0.2 mg/kg/day
LOAEL [5, 24]: > 18 mg/kg/day
NOAEL [5, 24]: ≥ 18 mg/kg/day
LEL [6, 25]: 100 mg/kg/day
LOAEL [6, 25]: 100 mg/kg/day
NEL [6, 25]: 25 mg/kg/day
NOAEL [6, 25]: 25 mg/kg/day
LEL [6, 26]: 100 mg/kg/day
LOAEL [6, 26]: 100 mg/kg/day
NEL [6, 26]: 25 mg/kg/day
NOAEL [6, 26]: 25 mg/kg/day
LEL [7]: 1000 mg/kg/day
LOAEL [7]: 1000 mg/kg/day
NEL [7]: < 1000 mg/kg/day
NOAEL [7]: < 1000 mg/kg/day
LEL [8]: 75 mg/kg/day
LOAEL [8]: 75 mg/kg/day
NEL [8]: < 75 mg/kg/day
NOAEL [8]: < 75 mg/kg/day
LEL [9]: 37.5 mg/kg/day
LOAEL [9]: 37.5 mg/kg/day
NEL [9]: < 37.5 mg/kg/day
NOAEL [9]: < 37.5 mg/kg/day
LOAEL [10, 27]: 6 mg/kg/day
NOAEL [10, 27]: 2 mg/kg/day
LEL [10, 28]: 2 mg/kg/day
NEL [10, 28]: < 2 mg/kg/day
LEL [11]: 4.17 mg/kg/day
LOAEL [11]: 4.17 mg/kg/day
NEL [11]: < 4.17 mg/kg/day
NOAEL [11]: < 4.17 mg/kg/day
NEL [12, 29]: 4.17 mg/kg/day
NOAEL [12, 29]: 4.17 mg/kg/day
LEL [12, 30]: 25 mg/kg/day
LOAEL [12, 30]: 25 mg/kg/day
LOAEL ([13]; systemic / in life observation / clinical signs / defecation (diarrhea) + systemic / in life observation / clinical signs / emesis): 3.11 mg/kg/day
NOAEL ([13]; systemic / in life observation / clinical signs / defecation (diarrhea) + systemic / in life observation / clinical signs / emesis + …): 0.331 mg/kg/day
LEL [13, 31]: 0.288 mg/kg/day
NEL [13, 31]: < 0.288 mg/kg/day
LEL [14, 32]: 0.2 mg/kg/day
NEL [14, 32]: < 0.2 mg/kg/day
LOAEL [14, 33]: 2 mg/kg/day
NOAEL [14, 33]: 0.6 mg/kg/day
LEL [15]: 4.17 mg/kg/day
LOAEL [15]: 4.17 mg/kg/day
NEL [15]: < 4.17 mg/kg/day
NOAEL [15]: < 4.17 mg/kg/day

CC(Cl)CCl (stereo not drawn) [1,2-Dichloropropane]
LEL [16]: 30 mg/kg/day
LOAEL [16]: 500 mg/kg/day
NEL [16]: < 30 mg/kg/day
NOAEL [16]: 250 mg/kg/day
LEL [17]: 62 mg/kg/day
LOAEL [17]: 125 mg/kg/day
NEL [17]: < 62 mg/kg/day
LOAEL ([18]; systemic / pathology microscopic / liver / hypertrophy + systemic / pathology microscopic / liver / necrosis): 250 mg/kg/day
LEL [18, 34]: 125 mg/kg/day
NEL [18, 34]: < 125 mg/kg/day
NOAEL [18, 34]: 125 mg/kg/day
LEL ([19]; systemic / in life observation / body weight / body weight + systemic / in life observation / mortality / mortality): 500 mg/kg/day
LOAEL [19, 35]: > 1000 mg/kg/day
NEL [19, 35]: 250 mg/kg/day
NOAEL [19, 35]: ≥ 1000 mg/kg/day
